Common to all, as to type: cell-based, human
In experiment [1] the test system is pERK in NCIH1755 cells (BRAF G469A). Kind of experiment: Phospho-ERK inhibition (AlphaLISA), NCIH1755. To be noted: for NCIH1755 pERK % Ymin: NCIH1755, value in parentheses. The procedure:
(§1) All cancer cell lines (A375, A101D, A2058, RKO, HT29 SK-MEL 30, IPC298, HepG2, HCT-116, Lovo, SWV620, SW480, NCI-H358, NCI-H2122, Calu-6, NCIH2087, NCIH1755, NCIH1666 and Mewo) were obtained from ATCC and cultured in RPMI-1640 medium (Gibco) supplemented with 5% heat inactivated fetal bovine serum (FBS, Wisent) at 37° C. under 5% CO2. Cells were maintained in T175 flasks (Greiner). They were passaged by removing the culture medium, washing once in 10 mL of room temperature Phosphate Buffered Saline (PBS; Wisent) and incubating at 37° C. with 2 mL of 0.05% Trypsin (Thermo-Fisher). Trypsin was then inactivated by adding complete growth medium and the cells were then replated in a T175 culture dish at the appropriate dilution. All cell lines were routinely tested for mycoplasma contamination. Tissue type and mutational status of each cell line can be found in Table B.
(§2) AlphaLISA® SureFire® Ultra™ p-ERK 1/2 (Thr202/Tyr204) analysis was conducted on cells plated in 100 μL of complete RPMI-1640 growth medium in 96-well flat-bottomed transparent dishes (Costar) at a density indicated in Table C. Cells were maintained overnight at 37° C. under 5% CO2 before treatment with compounds' dilution series for one hour. The cell density in cells/cm^2 corresponds to cell number divided by the area of one well of a 96-well plate ([…]).
(§3) In a dilution series 100 μL/well of test substance dilution prepared in complete RPMI-1640 growth media was added to the cells. The dilution series is selected so that ten concentrations cover a range from 10 μM to 0.33 nM. If necessary the initial concentration of 10 μM is increased to 100 μM or lowered to 1 μM (as in the case of A375 and H1666 cells, which are generally more sensitive to the compounds) and further dilution is carried out accordingly. The final concentration of DMSO in the assay is set at 0.5%.
(§4) After treatment, media was removed and cells were lysed in 50 μL of 1× AlphaScreen Ultra Lysis Buffer (Perkin Elmer). The AlphaLISA® SureFire® Ultra™ p-ERK 1/2 (Thr202/Tyr2O4) (PerkinElmer) reactions were performed with 5 μL of cell lysate according to the manufacturer's specifications in 384-well proxyplates (Perkin Elmer) followed by overnight incubation of the reactions at room temperature in a humidified chamber. After completion of the reactions, the signals were recorded on an EnVision plate reader (Perkin Elmer) using built in AlphaLISA® settings.
(§5) The effect of each compound dilution on the pERK signal was expressed in % inhibition and calculated as follows. An internal 100% inhibition control ([…] trametinib, cat #HY-10999; MedChem Express; CAS #871700-17-3) was included in each plate and used as a measure of pERK background. First, the value obtained for trametinib was subtracted from each data point. The average of DMSO (vehicle) controls (set as 0% inhibition) was established and used to calculate % inhibition: % inhibition=100*(1-((pERK signalcompound)/(pERK signalDMSO)))
(§6) The ability of each compound to inhibit pERK signal was expressed as an IC50 value obtained by plotting the inhibition values for each data point of a dilution series and fitting the obtained curves using a log(agonist) versus response-variable slope (four parameters) function using GraphPadPrism (V7.0) or Dotmatics Screening Ultra platform.
(§7) When present, paradoxical pERK induction is inferred from the negative % inhibition values observed in the pERK IC50 curves of a compound.
On the technique in general: Alpha assays give light when donor and acceptor beads are brought close together.

For experiment [2], the system named is pERK in Calu-6 cells (KRAS Q61K). Kind of experiment: Phospho-ERK inhibition (AlphaLISA), Calu-6. The conditions noted are these: for Calu6 pERK % Ymin: Calu6, value in parentheses. The procedure: as §1, §2, §3, §4, §5, §6, §7
Experiment [3] deals with pERK in HCT-116 cells (KRAS G13D). In words: Phospho-ERK inhibition (AlphaLISA SureFire Ultra p-ERK 1/2), HCT116. To be noted: for HCT116 pERK % Ymin: value in parentheses. Summed up: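 Cells in RPMI-1640 with 5% FBS were plated overnight, then exposed for 1 h to ten-point dilutions (typically 10 μM to 0.33 nM; 0.5% DMSO). Lysates were read by AlphaLISA SureFire Ultra for p-ERK1/2 Thr202/Tyr204; % inhibition used trametinib background and DMSO controls, with IC50 from four-parameter fits.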

The test system of experiment [4] is NCIH2087 cells (BRAF L597V; KRAS Q61K). Kind of experiment: Proliferation inhibition (CellTiter-Glo), NCIH2087. The conditions noted are these: NCIH2087, 3 days, read-out: NCIH2087 Prolif. EC50. The procedure: as §1
(§8) CellTiter-Glo® viability analysis was conducted on cells plated in 100 μL of complete RPMI-1640 growth medium in 96-well flat-bottomed white opaque plates (Greiner or Croning) at a density indicated in Table E (for each CCL, number of cells plated per well of a 96-well plate to perform the CellTiter-Glo® cell viability assay). The cell density in cells/cm^2 would correspond to cell number divided by the area of one well of a 96-well plate (0.32 cm^2). […]
(§9) After 3 days of incubation, the growth media were removed by aspiration and 60 μL of diluted CellTiter-Glo® reagent (10 μL CellTiter-Glo® reagent+50 μL of PBS) was added to each well. […] Luminescence signals were then acquired on a Synergy Neo2 plate reader (Biotek).
(§10) The effect of each compound dilution on the proliferation of cancer cell lines was expressed in % inhibition and calculated as follows. […]
(§11) The ability of each compound to inhibit proliferation was expressed as a EC50 value obtained by plotting the effect values for each data point of a dilution series and fitting the obtained curves using a log(agonist) versus response-variable slope (four parameters) function using GraphPadPrism (V7.0) or Dotmatics Screening Ultra platform.
A general note: Cellular ATP, detected with luciferase, serves as a proxy for viable cell number.

In a further experiment the test system is A375 cells (BRAF V600E). Kind of experiment: Proliferation inhibition (CellTiter-Glo), A375. To be noted: A375, 3 days, read-out: A375 Prolif. EC50. The procedure:
as §1, §8, §9, §10, §11

Experiment [5] has as its system SK-MEL30 cells (NRAS-Q61K). Kind of experiment: Proliferation inhibition (CellTiter-Glo), SK-MEL30. To be noted: SK-MEL30, 3 days, read-out: SK-MEL30 Prolif. EC50. The procedure:
as §1, §8, §9, §10, §11

This note sets out measurements from patent publication US12139488B2, “Pyrido[3,2-d]pyrimidine compounds uses thereof for treating a proliferative disease” (Universite de Montreal, priority 2021, dated 2024).

Structures are written as SMILES. Read-outs that look alike come from different tables or passages of the source.

One may read the IC50 as the point on the concentration scale where inhibition reaches its midpoint. As a reminder, the EC50 is the concentration needed to bring the measured effect to its halfway point.

`Nc1cccc2c1ncn2-c1ccc2ncnc(Nc3c(F)ccc(NS(=O)(=O)c4cccc(Cl)c4Cl)c3F)c2n1` [Example 99]: the IC50 was < 30 nM in experiment [1] (NCIH1755); 30 to 300 nM in experiment [2] (Calu6); 30 to 300 nM in experiment [3] (HCT116, Table D); < 500 nM in experiment [3] (HCT116 cells, class symbol before the bracket). The “NCIH1755 pERK % Ymin” value in experiment [1] was −8%. For the same compound, the “Calu6 pERK % Ymin” value in experiment [2] is given as −12%. Moreover, in experiment [3] (HCT116, Table D), the “HCT116 pERK % Ymin” value is on record as −0.3%. In addition, the “HCT116 pERK Ymin %” value in experiment [3] (HCT116 cells, Ymin in brackets) is recorded as −5.4%. In addition, the “YMIN of pERK IC50 dose response curve (paradoxical induction of pERK signaling)” value in experiment [3] (RAS-mutant HCT116 cells, FIG. 1) is > −20%. Besides, the results for the 50% effective concentration (EC50) (in experiment [4]; in the experiment with A375 cells (BRAF V600E); in experiment [5]) were 300 to 3000 nM, < 30 nM and < 30 nM, respectively.
For the compound `CC1(O)CCN(c2cccc3c2ncn3-c2ccc3ncnc(Nc4c(F)ccc(NS(=O)(=O)c5cccc(Cl)c5Cl)c4F)c3n2)CC1` [Example 524], the 50% inhibitory concentration (IC50) was 30 to 300 nM in experiment [1] (NCIH1755); 30 to 300 nM in experiment [2] (Calu6); 30 to 300 nM in experiment [3] (HCT116, Table D); < 500 nM in experiment [3] (HCT116 cells, class symbol). The “NCIH1755 pERK % Ymin” value in experiment [1] is −13%. Further, the “Calu6 pERK % Ymin” value in experiment [2] was −13%. In experiment [3] (HCT116, Table D), the “HCT116 pERK % Ymin” value was −3%. Moreover, the EC50 (in experiment [4]; in the experiment with A375 cells (BRAF V600E); in experiment [5]) was < 30 nM in each case.
For `Cc1ccc2c(Nc3cccc(Cl)c3F)nccc2c1NC(=O)c1csc2c(N)ncnc12` [Belvarafenib, reference compound], the IC50 lay within 30 to 300 nM in experiment [1] (Homo sapiens, NCI-H1755); 30 to 300 nM in experiment [2] (Homo sapiens, Calu-6, read-out: Calu6 pERK IC50); 30 to 300 nM in experiment [3] (Homo sapiens, HCT-116, HCT116, Table D). Moreover, the “NCIH1755 pERK % Ymin” value in experiment [1] is −79%. In experiment [2], the “Calu6 pERK % Ymin” value is recorded as −39%. Further, in experiment [3] (HCT116, Table D), the “HCT116 pERK % Ymin” value is −46%. For the same compound, the EC50 in experiment [4] (Homo sapiens, NCI-H2087, 72 h) was < 30 nM; in the experiment on A375 cells (BRAF V600E) (Homo sapiens, A-375, 72 h) it was < 30 nM; in experiment [5] (Homo sapiens, SK-MEL-30, 72 h), < 30 nM.
